According to patent publication US9631196B2, “Genetic manipulation and expression systems for Pucciniomycotina and Ustilaginomycotina subphyla” (priority 2011, dated 2017):
Read-outs that look alike come from different tables or passages of the source.

Legend:
U maydis spheroplasts = type: cell-based, Ustilago maydis
Source text: (§1) cyp1 (um11812) and ptf1 (um02713) genes were chosen for the comparison of gene-targeting frequency, which can be monitored by the loss of ustilagic acids (UA) production and the loss of Fuz^+ colonies, respectively. Gene deletion constructs, pKOcyp1 and pKOprf1, were made by one-step ligation of four fragments. pKOcyp1 is composed of the 2.0-kb HindIII-PacI fragment containing the Pgpd::hpt cassette, the 8.7 kb NcoI-KpnI fragment from pEX2tk, the 1405 bp NcoI-HindIII and the 1076 bp PacI-KpnI PCR product derived from the upstream and downstream regions of the cyp1 ORF. The oligo pairs Cyp1L-Nf/Cyp1L-Hr (SEQ ID NO:29/SEQ ID NO:30) and Cyp1R-Pf/Cyp1R-Kr (SEQ ID NO:31/SEQ ID NO:32) were used for the amplification of upstream and downstream region, respectively. pKOprf1 was made similarly except the PCR product of oligo pairs Prf1L-Nf/Prf1L-Hr (SEQ ID NO:33/SEQ ID NO:34) and Prf1R-Pf/Prf1R-Kr (SEQ ID NO:35/SEQ ID NO:36) were used as the upstream and downstream homology region, respectively. Correct strains were identified by colony PCR using Taq DNA polymerase based on the size of the expected constructs using oligos LB/Cyp1L-Nf (SEQ ID NO:37/SEQ ID NO:29) and LB/Prf1L-Nf (SEQ ID NO:37/SEQ ID NO:33) for cyp1Δ and prf1Δ respectively. The same construction and identification techniques were applied to generate other gene deletion mutants in this study.
PEG-mediated transformation of U maydis spheroplasts were done as described previously (Kämper, 2004). Briefly, the 4.5 kb cyp1 and prf1 gene deletion cassettes were amplified from pKOcyp1 and pKOprf1 using the Expand Long System (Roche Diagnosis, USA) and oligos Cyp1L-Nf/Cyp1R-Kr (SEQ ID NO:29/SEQ ID NO:32) and Prf1L-Nf/Prf1R-Kr (SEQ ID NO:33/SEQ ID NO:36), respectively. The PCR products were gel purified (Qiagen, Germany) and used for transformation. […]

U. maydis L8 and SG200 = type: cell-based, Ustilago maydis; settings: for cyp1Δ (%) gene knockout frequency / prf1 Δ (%) gene knockout frequency: co-culture 2 days
Source text: as §1
Similar results were obtained when knockout was performed via the ATMT transformation (Table 9).

[1] = NU7026 1 μM in top and bottom regeneration media, 3 days, out of 288 transformants

O=c1cc(N2CCOCC2)oc2c1ccc1ccccc12 [NU7026, 2-(morpholin-4-yl)-benzo[h]chomen-4-one; 2-(4-morpholinyl)-4H-naphthol[1,2-b]pyran-4-one]
cyp1Δ gene knockout frequency (U maydis spheroplasts; [1]): 16.67%
prf1Δ gene knockout frequency (U maydis spheroplasts; [1]): 26.39%
increase of gene knockout frequency (U maydis spheroplasts; both cyp1 and prf1, NU7026 1 μM vs control): about 3 folds
cyp1Δ (%) gene knockout frequency (U. maydis L8 and SG200; NU7026 0.1 μM): 8.3%
prf1 Δ (%) gene knockout frequency (U. maydis L8 and SG200; NU7026 0.1 μM): 11.4%
cyp1Δ (%) gene knockout frequency (U. maydis L8 and SG200; NU7026 1 μM): 18.8%
prf1 Δ (%) gene knockout frequency (U. maydis L8 and SG200; NU7026 1 μM): 25.1%
cyp1Δ (%) gene knockout frequency (U. maydis L8 and SG200; NU7026 5 μM): 10.4%
prf1 Δ (%) gene knockout frequency (U. maydis L8 and SG200; NU7026 5 μM): 12.7%
cyp1Δ (%) gene knockout frequency (U. maydis L8 and SG200; NU7026 10 μM): 8.3%
prf1 Δ (%) gene knockout frequency (U. maydis L8 and SG200; NU7026 10 μM): 8.7%
cyp1Δ (%) gene knockout frequency (U. maydis L8 and SG200; NU7026 50 μM): 7.4%
prf1 Δ (%) gene knockout frequency (U. maydis L8 and SG200; NU7026 50 μM): 8.5%
total number of transformants obtained in 5 transformation plates (U. maydis L8 and SG200; cyp1Δ, NU7026 0.1 μM): 601
total number of transformants obtained in 5 transformation plates (U. maydis L8 and SG200; cyp1Δ, NU7026 1 μM): 496
total number of transformants obtained in 5 transformation plates (U. maydis L8 and SG200; cyp1Δ, NU7026 5 μM): 413
total number of transformants obtained in 5 transformation plates (U. maydis L8 and SG200; cyp1Δ, NU7026 10 μM): 96
total number of transformants obtained in 5 transformation plates (U. maydis L8 and SG200; cyp1Δ, NU7026 50 μM): 68
total number of transformants obtained in 5 transformation plates (U. maydis L8 and SG200; prf1Δ, NU7026 0.1 μM): 642
total number of transformants obtained in 5 transformation plates (U. maydis L8 and SG200; prf1Δ, NU7026 1 μM): 554
total number of transformants obtained in 5 transformation plates (U. maydis L8 and SG200; prf1Δ, NU7026 5 μM): 361
total number of transformants obtained in 5 transformation plates (U. maydis L8 and SG200; prf1Δ, NU7026 10 μM): 172
total number of transformants obtained in 5 transformation plates (U. maydis L8 and SG200; prf1Δ, NU7026 50 μM): 59
